PMC4854315, “Discovery of a novel allosteric inhibitor-binding site in ERK5: comparison with the canonical kinase hinge ATP-binding site” (Acta Crystallographica. Section D, Structural Biology, 2016)

What was measured:
Assay in all cases: Z'-LYTE kinase panel
Type in all cases: biochemical
[1] = target: T1, FGR (Homo sapiens, UniProt P09769)
T1 construct: purchased ThermoFisher (SelectScreen, Z'-LYTE)
Method in brief: (§1)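 Standard Z′-LYTE protocol applied. Compound fixed at 10 µM. Output: % inhibition. Panel size 225 kinases.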

[2] = target: T2, CSK (Homo sapiens, UniProt P41240)
T2 construct: purchased ThermoFisher (SelectScreen, Z'-LYTE)
T2 sequence (P41240 whole entry): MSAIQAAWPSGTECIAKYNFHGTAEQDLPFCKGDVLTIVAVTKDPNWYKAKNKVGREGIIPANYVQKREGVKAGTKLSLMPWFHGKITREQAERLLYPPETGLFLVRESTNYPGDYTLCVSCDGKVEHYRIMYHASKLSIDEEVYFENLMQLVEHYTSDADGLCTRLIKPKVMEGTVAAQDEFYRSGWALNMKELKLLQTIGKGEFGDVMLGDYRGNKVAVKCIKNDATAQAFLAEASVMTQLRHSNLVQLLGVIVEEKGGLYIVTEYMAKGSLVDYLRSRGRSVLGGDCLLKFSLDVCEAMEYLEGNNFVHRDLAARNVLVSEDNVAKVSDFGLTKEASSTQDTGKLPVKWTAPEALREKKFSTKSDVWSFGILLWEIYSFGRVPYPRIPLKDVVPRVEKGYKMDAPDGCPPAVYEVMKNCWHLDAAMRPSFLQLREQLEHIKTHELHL
Method in brief: as §1

[3] = target: T3, FER (Homo sapiens, UniProt P16591)
T3 construct: purchased ThermoFisher (SelectScreen, Z'-LYTE)
T3 sequence (P16591 whole entry): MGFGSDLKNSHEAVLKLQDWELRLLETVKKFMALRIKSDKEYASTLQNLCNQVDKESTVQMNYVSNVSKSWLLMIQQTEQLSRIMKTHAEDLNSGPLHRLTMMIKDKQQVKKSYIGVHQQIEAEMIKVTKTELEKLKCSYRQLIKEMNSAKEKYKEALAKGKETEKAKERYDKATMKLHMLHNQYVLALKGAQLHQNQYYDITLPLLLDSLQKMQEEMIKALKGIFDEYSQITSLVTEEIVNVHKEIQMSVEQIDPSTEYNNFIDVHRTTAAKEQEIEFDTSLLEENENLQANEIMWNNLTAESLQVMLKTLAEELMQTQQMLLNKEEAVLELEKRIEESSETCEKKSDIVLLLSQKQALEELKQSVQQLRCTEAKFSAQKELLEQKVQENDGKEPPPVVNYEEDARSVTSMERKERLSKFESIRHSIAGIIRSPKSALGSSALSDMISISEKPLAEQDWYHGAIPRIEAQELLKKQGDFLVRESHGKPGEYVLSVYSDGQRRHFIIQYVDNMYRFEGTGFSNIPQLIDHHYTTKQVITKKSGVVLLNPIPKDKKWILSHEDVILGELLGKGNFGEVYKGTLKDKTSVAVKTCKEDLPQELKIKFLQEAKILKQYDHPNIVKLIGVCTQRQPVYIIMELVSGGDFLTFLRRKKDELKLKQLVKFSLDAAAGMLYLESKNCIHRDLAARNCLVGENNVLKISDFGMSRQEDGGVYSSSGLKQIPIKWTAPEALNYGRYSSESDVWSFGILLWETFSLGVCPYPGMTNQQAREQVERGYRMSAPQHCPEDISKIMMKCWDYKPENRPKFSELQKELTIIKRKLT
Method in brief: as §1

[4] = target: T4, MAP3K9 (MLK1) (Homo sapiens, UniProt P80192)
T4 construct: purchased ThermoFisher (SelectScreen, Z'-LYTE)
T4 sequence (P80192 whole entry): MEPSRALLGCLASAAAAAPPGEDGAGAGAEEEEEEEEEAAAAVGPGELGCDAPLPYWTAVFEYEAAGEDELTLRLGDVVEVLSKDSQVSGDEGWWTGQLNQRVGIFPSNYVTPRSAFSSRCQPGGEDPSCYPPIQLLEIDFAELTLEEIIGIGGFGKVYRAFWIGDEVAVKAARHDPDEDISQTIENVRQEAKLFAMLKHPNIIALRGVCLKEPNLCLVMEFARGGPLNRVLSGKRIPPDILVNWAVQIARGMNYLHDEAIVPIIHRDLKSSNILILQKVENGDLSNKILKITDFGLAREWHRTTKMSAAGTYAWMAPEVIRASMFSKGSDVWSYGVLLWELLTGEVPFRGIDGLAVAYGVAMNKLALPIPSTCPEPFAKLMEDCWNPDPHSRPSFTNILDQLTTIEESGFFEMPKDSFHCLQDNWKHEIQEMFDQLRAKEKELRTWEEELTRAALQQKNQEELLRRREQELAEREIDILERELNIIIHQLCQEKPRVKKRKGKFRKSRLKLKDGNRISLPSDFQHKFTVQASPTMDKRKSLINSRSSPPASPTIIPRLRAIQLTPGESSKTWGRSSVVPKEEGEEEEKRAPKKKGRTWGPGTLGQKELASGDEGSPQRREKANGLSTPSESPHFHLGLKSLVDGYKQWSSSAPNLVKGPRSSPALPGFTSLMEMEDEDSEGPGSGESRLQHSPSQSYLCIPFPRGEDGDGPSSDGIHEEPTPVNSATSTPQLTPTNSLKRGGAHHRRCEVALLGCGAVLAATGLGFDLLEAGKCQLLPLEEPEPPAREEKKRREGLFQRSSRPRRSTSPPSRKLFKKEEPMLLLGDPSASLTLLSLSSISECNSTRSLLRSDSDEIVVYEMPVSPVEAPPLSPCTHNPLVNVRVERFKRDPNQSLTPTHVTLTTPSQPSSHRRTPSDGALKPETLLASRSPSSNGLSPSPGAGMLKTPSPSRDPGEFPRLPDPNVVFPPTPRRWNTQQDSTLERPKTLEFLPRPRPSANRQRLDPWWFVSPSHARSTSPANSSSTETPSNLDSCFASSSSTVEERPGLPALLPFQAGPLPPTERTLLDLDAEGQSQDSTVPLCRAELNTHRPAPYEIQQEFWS
Method in brief: as §1

[5] = target: T5, KDR (VEGFR2) (Homo sapiens, UniProt P35968)
T5 construct: purchased ThermoFisher (SelectScreen, Z'-LYTE)
T5 sequence (P35968 20-1356): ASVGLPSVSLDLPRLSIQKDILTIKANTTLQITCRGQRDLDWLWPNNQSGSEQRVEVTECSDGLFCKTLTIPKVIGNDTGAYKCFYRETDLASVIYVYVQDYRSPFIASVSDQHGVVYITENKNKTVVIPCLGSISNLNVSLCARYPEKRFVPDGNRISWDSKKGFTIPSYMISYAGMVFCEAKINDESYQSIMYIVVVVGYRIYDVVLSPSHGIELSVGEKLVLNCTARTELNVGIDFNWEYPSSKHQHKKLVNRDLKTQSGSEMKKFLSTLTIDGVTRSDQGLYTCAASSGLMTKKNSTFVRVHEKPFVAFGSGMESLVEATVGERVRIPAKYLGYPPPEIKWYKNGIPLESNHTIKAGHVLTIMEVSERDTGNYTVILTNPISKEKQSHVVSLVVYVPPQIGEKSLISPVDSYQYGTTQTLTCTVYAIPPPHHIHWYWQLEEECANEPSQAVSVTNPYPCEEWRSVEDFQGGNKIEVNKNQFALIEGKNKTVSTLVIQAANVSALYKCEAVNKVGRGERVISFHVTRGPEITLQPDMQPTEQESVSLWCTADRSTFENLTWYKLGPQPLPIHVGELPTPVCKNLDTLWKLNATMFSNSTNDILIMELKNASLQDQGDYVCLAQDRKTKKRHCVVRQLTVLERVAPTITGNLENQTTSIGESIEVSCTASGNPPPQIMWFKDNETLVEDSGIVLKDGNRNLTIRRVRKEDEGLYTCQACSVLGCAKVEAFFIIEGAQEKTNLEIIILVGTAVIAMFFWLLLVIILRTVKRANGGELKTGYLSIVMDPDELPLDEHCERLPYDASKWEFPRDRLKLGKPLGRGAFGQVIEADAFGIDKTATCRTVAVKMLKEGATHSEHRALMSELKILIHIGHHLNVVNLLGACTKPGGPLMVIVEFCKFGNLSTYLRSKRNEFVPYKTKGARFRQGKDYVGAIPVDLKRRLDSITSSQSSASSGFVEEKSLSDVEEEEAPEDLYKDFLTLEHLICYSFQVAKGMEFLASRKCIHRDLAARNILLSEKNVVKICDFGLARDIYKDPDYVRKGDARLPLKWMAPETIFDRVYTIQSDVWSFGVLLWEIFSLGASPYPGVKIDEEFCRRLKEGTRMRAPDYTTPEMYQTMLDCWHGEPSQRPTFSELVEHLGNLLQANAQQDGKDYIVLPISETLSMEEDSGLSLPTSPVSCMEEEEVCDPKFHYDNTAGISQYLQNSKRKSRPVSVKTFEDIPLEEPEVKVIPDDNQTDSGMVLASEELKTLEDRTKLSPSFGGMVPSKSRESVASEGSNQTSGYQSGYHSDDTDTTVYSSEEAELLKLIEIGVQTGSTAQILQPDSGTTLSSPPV
Method in brief: as §1

[6] = target: T6, INSRR (IRR) (Homo sapiens, UniProt P14616)
T6 construct: purchased ThermoFisher (SelectScreen, Z'-LYTE)
Method in brief: as §1

[7] = target: T7, IKBKB (IKK beta) (Homo sapiens, UniProt O14920)
T7 construct: purchased ThermoFisher (SelectScreen, Z'-LYTE)
T7 sequence (O14920 1-756): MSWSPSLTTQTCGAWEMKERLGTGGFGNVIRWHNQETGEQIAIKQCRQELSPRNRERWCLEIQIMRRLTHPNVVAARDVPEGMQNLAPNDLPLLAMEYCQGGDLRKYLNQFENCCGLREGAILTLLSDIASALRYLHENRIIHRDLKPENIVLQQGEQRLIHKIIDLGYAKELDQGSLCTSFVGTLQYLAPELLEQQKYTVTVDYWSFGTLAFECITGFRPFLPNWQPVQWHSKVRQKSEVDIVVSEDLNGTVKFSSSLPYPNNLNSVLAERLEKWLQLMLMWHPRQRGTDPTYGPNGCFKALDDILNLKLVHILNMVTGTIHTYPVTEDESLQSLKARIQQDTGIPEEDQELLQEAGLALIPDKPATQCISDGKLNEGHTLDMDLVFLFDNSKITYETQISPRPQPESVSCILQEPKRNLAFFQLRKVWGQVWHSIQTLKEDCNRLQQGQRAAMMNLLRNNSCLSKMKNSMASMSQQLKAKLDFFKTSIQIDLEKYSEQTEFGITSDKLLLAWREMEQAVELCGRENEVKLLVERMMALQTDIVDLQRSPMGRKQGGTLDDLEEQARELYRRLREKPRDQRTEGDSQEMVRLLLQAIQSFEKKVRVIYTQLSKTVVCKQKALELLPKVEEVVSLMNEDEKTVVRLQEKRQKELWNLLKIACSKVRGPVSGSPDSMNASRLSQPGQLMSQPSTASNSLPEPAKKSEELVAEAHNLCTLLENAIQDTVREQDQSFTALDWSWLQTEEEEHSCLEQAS
Method in brief: as §1

[8] = target: T8, PRKX (Homo sapiens, UniProt P51817)
T8 construct: purchased ThermoFisher (SelectScreen, Z'-LYTE)
T8 sequence (P51817 1-358): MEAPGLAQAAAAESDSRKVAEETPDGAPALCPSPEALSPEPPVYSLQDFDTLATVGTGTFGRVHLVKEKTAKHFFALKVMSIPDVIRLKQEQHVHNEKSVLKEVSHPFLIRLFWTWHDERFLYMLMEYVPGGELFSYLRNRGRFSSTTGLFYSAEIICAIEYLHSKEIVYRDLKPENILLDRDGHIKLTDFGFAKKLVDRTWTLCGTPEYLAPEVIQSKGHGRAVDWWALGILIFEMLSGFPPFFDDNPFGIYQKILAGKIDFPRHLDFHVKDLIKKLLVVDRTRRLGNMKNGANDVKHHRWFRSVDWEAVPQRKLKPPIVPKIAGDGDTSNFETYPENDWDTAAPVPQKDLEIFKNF
Method in brief: as §1

[9] = target: T9, ZAP70 (Homo sapiens, UniProt P43403)
T9 construct: purchased ThermoFisher (SelectScreen, Z'-LYTE)
T9 sequence (P43403 1-619): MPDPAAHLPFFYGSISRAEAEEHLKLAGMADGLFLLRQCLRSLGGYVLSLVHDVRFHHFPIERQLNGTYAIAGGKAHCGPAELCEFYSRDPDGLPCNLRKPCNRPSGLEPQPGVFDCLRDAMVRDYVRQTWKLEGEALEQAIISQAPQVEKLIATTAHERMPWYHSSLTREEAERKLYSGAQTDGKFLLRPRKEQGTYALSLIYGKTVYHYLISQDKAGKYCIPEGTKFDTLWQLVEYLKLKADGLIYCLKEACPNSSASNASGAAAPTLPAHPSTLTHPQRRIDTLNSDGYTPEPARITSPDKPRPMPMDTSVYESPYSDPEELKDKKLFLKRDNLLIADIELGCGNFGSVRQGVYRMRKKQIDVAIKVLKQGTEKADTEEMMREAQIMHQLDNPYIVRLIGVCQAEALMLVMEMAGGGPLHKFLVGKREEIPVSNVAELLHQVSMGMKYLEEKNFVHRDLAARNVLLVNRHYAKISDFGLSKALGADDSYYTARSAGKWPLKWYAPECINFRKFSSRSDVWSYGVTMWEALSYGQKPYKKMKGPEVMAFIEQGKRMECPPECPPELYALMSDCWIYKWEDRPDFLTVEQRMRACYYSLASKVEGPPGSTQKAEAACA
Method in brief: as §1

[10] = target: T10, FGFR4 (Homo sapiens, UniProt P22455)
T10 construct: purchased ThermoFisher (SelectScreen, Z'-LYTE)
T10 sequence (P22455 22-802): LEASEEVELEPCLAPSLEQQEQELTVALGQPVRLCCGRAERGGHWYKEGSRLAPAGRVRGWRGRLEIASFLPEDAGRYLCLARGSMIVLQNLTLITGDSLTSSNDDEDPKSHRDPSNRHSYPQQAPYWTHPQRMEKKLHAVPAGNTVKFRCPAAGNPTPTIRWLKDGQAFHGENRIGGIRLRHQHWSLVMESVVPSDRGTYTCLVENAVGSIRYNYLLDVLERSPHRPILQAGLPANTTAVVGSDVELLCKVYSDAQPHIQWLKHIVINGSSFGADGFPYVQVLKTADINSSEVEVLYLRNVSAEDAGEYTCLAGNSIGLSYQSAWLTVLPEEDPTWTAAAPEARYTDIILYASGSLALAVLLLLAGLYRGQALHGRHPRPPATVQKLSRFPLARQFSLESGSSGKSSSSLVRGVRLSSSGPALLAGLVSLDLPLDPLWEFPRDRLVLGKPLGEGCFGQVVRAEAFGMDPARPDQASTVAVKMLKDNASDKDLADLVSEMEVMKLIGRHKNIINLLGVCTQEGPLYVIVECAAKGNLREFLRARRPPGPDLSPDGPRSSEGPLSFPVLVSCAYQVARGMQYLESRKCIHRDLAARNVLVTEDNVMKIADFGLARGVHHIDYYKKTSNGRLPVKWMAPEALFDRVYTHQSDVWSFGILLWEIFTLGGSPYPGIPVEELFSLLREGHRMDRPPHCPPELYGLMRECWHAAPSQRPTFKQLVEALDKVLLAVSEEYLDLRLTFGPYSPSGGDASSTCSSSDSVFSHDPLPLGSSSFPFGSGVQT
Method in brief: as §1

[11] = target: T11, PHKG1 (Homo sapiens, UniProt Q16816)
T11 construct: purchased ThermoFisher (SelectScreen, Z'-LYTE)
Method in brief: as §1

[12] = target: T12, LCK (Homo sapiens, UniProt P06239)
T12 construct: purchased ThermoFisher (SelectScreen, Z'-LYTE)
T12 sequence (P06239 whole entry): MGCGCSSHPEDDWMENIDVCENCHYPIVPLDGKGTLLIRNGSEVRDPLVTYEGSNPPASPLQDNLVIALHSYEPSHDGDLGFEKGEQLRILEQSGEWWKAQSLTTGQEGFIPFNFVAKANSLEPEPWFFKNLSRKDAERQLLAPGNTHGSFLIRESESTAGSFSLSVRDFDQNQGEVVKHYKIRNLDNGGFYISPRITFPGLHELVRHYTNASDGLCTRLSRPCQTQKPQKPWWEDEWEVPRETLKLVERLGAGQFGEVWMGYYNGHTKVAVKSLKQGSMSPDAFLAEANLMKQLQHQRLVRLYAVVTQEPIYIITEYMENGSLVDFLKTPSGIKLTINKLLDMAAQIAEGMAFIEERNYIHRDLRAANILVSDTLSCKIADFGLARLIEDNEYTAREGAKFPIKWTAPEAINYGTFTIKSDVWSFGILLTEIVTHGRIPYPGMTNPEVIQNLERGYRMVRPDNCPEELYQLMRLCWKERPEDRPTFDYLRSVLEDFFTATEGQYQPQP
Method in brief: as §1

XMD8-92 [Compound 2, reference compound]
FGR % Inhibition ([1]; 10 µM compound, ATP Km app): 83%
CSK % Inhibition ([2]; 10 µM compound, ATP Km app): 11%
FER % Inhibition ([3]; 10 µM compound, ATP Km app): 79%
MAP3K9 (MLK1) % Inhibition ([4]; 10 µM compound, ATP Km app): 8.53%
KDR (VEGFR2) % Inhibition ([5]; 10 µM compound, ATP Km app): 81%
INSRR (IRR) % Inhibition ([6]; 10 µM compound, ATP Km app): 21%
IKBKB (IKK beta) % Inhibition ([7]; 10 µM compound, ATP Km app): 44%
PRKX % Inhibition ([8]; 10 µM compound, ATP Km app): 25%
ZAP70 % Inhibition ([9]; 10 µM compound, ATP Km app): 12%
FGFR4 % Inhibition ([10]; 10 µM compound, ATP Km app): 19%
PHKG1 % Inhibition ([11]; 10 µM compound, ATP Km app): 12%
LCK % Inhibition ([12]; 10 µM compound, ATP Km app): 15%

Cc1ncc(-c2nc(Nc3ccc(C(=O)NCCN4CCCCC4)cc3)ncc2F)n1C(C)C [Compound 3]
inhibition at 10 µM [1]: 90%
inhibition at 10 µM [2]: 29%
inhibition at 10 µM [3]: 105%
inhibition at 10 µM [4]: 92%
inhibition at 10 µM [5]: 100%
inhibition at 10 µM [6]: 105%
inhibition at 10 µM [7]: 33%
inhibition at 10 µM [8]: 84%
inhibition at 10 µM [9]: 19%
inhibition at 10 µM [10]: 19%
inhibition at 10 µM [11]: 100%
inhibition at 10 µM [12]: 94%

Cc1cc(Nc2nc(N)nn2C(=O)NC(C)C)ccc1Cl [Compound 5]
inhibition at 10 µM [1]: 54%
inhibition at 10 µM [2]: 16%
inhibition at 10 µM [3]: 22%
inhibition at 10 µM [4]: 69%
inhibition at 10 µM [5]: 59%
inhibition at 10 µM [6]: 5.63%
inhibition at 10 µM [7]: 3.42%
inhibition at 10 µM [8]: 8.43%
inhibition at 10 µM [9]: 12%
inhibition at 10 µM [10]: 10%
inhibition at 10 µM [11]: -5.38%
inhibition at 10 µM [12]: 29%
